In assay [1] the test system is Human endocervival adenocarcinoma (KB3.1). Description: cells. Format: cell-based. The protocol:
(§1) Serial dilution assays were performed in 96-well microtiter plates to determine the minimum inhibitory concentrations (MICs) against a panel of yeasts, filamentous fungi, and bacteria, as well as the half-maximal inhibitory concentrations (IC50) against human cell lines, following our previously described protocol ([Charria-Girón et al. 2023]).

Assay [2] relates to Bacillus subtilis (DSM 10). In words: microbe, parasite or virus in culture. The settings on record: serial dilution in 96-well microtiter plates, tested up to 67 µg/mL. Format: cell-based. On the procedure: as §1
For assay [3], the system named is Staphylococcus aureus (DSM 346). In words: microbe, parasite or virus in culture. Format: cell-based. The conditions noted are these: serial dilution in 96-well microtiter plates, tested up to 67 µg/mL. The protocol:
as §1

In the next assay the test system is Mouse fibroblast (L929). In words: Cytotoxicity assay. It counts as cell-based. The settings on record: serial dilution in 96-well plates.
For assay [4], the system named is Acinetobacter baumannii (DSM 30008). In words: MIC serial dilution assay. Format: cell-based. The settings on record: serial dilution in 96-well microtiter plates, tested up to 67 µg/mL. On the procedure: as §1
Assay [5] concerns Schizosaccharomyces pombe (DSM 70572). Description: MIC serial dilution assay. Format: cell-based. The conditions noted are these: serial dilution in 96-well microtiter plates, tested up to 67 µg/mL. The protocol: as §1
Assay [6] deals with Candida albicans (DSM 1665). In words: MIC serial dilution assay. It counts as cell-based. The settings on record: serial dilution in 96-well microtiter plates, tested up to 67 µg/mL. On the procedure: as §1
For assay [7], the system named is Pseudomonas aeruginosa (PA14). Description: MIC serial dilution assay. Format: cell-based. The settings on record: serial dilution in 96-well microtiter plates, tested up to 67 µg/mL. The protocol:
as §1

For assay [8], the system named is Mycobacterium smegmatis (ATCC 700084). Description: MIC serial dilution assay. It counts as cell-based. The settings on record: serial dilution in 96-well microtiter plates, tested up to 67 µg/mL. The protocol: as §1
Assay [9] has as its system Chromobacterium violaceum (DSM 30191). Description: MIC serial dilution assay. It counts as cell-based. The settings on record: serial dilution in 96-well microtiter plates, tested up to 67 µg/mL. The protocol: as §1
The test system of assay [10] is Mucor hiemalis (DSM 2656). In words: MIC serial dilution assay. The conditions noted are these: serial dilution in 96-well microtiter plates, tested up to 67 µg/mL. Format: cell-based. The protocol: as §1
In assay [11] the test system is Rhodotorula glutinis (DSM 10134). Description: MIC serial dilution assay. It counts as cell-based. The settings on record: serial dilution in 96-well microtiter plates, tested up to 67 µg/mL. On the procedure:
as §1

For assay [12], the system named is Escherichia coli (DSM 1116). Description: MIC serial dilution assay. Format: cell-based. The settings on record: serial dilution in 96-well microtiter plates, tested up to 67 µg/mL. On the procedure: as §1
The subject of assay [13] is Wickerhamomyces anomalus (DSM 6766). Description: MIC serial dilution assay. Format: cell-based. The conditions noted are these: serial dilution in 96-well microtiter plates, tested up to 67 µg/mL. The protocol: as §1
Assay [14] concerns beet armyworm (Spodoptera exigua, Lepidoptera). Description: Virulence of purified compounds against beet armyworm larvae (injection). It counts as in vivo. The conditions noted are these: larvae injected with 0.5 µL of DMSO dilutions (40 to 0.625 µg/mL), n = 6 per concentration, 25 °C; concentration of the value not stated. The protocol:
To evaluate the virulence of purified compounds against beet armyworm larvae, beauveriolides I (4) and M (5) were selected based on availability, and cytochalasin D served as a positive control. […] Larvae were injected with 0.5 µL of each dilution (n = 6 per concentration), maintained at 25 °C for one week, and monitored daily to assess mortality. Saline ([…]) and DMSO served as negative controls.
For proof of concept, beauveriolides I (4) and M (5) were selected based on availability and tested following the spore-suspension protocol but considering only total mortality, with cytochalasin D, a mycotoxin commonly produced by Metarhizium spp., used as a positive control ([Kobmoo et al. 2024]).

Setting [15] is: Homo sapiens, KB 3-1, KB3.1, serial dilution in 96-well plates, read-out: IC50.
The mark [16] stands for this setting: Bacillus subtilis, DSM10, read-out: MIC.
[17] abbreviates: Staphylococcus aureus, DSM346, read-out: MIC.
Setting [18] is: Candida albicans, DSM1665, read-out: MIC.
[19] abbreviates: Pseudomonas aeruginosa, PA14, read-out: MIC.
[20] abbreviates: Mycolicibacterium smegmatis, ATCC700084, read-out: MIC.
Setting [21] is: Mucor hiemalis, DSM2656, read-out: MIC.
Setting [22] is: Escherichia coli, DSM1116, read-out: MIC.
The mark [23] stands for this setting: Chromobacterium violaceum, DSM30191, read-out: MIC.
Where [24] appears, read: KB3.1, serial dilution in 96-well plates, read-out: IC50.

Converted amounts (≈) assume the structure as drawn. Where two headings read alike, the source gives them in different places. Bounds are passed on as bounds.

The term IC50 denotes the concentration that gives 50% inhibition. `CCCC[C@H](C)[C@@H]1CC(=O)N[C@@H](Cc2c[nH]c3ccccc23)C(=O)N[C@@H](Cc2ccccc2)C(=O)N[C@H](CC(C)C)C(=O)O1` [Compound 7, beauveriolide Jb]: the values for the IC50 (in assay [1]; in the assay on Mouse fibroblast (L929)) were 36.5 µM and above 36.5 µM, respectively. The MIC entry in [2], in [3], in [4], in [5], in assay [6] and in assay [7] was “n.i. (No inhibition up to 67 µg/mL)” throughout. For the same molecule, the MIC entry in assay [8], in [9], in assay [10], in assay [11], in assay [12] and in assay [13] was “n.i. (No inhibition up to 67 µg/mL)” throughout.

`CC(=O)c1nccc2c1[nH]c1ccccc12` [Compound 11, 1-acetyl-β-carboline]: the IC50 (in assay [1] (setting [15]); with Mouse fibroblast (L929) (Mus musculus)) was above 36.5 µM in each case. Moreover, the MIC in [2] (setting [16]), in assay [3] (setting [17]), in [6] (setting [18]), in assay [7] (setting [19]), in assay [8] (setting [20]) and in [10] (setting [21]) was above 67 µg/mL in each case. Moreover, in [12] (setting [22]), the MIC was above 67 µg/mL.

For `CC(=O)c1nc(C(=O)O)cc2c1[nH]c1ccccc12` [Compound 12, 1-acetyl-3-carboxy-β-carboline], the IC50 (in assay [1] (setting [15]); with Mouse fibroblast (L929) (Mus musculus)) was above 36.5 µM in each case. Moreover, the MIC in [2] (setting [16]) is above 67 µg/mL; in assay [3] (setting [17]), above 67 µg/mL; in [4] (Acinetobacter baumannii, DSM30008, read-out: MIC), above 67 µg/mL; in assay [5] (Schizosaccharomyces pombe, DSM70572, read-out: MIC), above 67 µg/mL; in assay [6] (setting [18]), above 67 µg/mL; in [7] (setting [19]) it was above 67 µg/mL. Moreover, the MIC in assay [8] (setting [20]) was above 67 µg/mL; in assay [9] (setting [23]), above 67 µg/mL; in assay [10] (setting [21]), above 67 µg/mL; in assay [11] (Rhodotorula glutinis, DSM10134, read-out: MIC), above 67 µg/mL; in [12] (setting [22]), above 67 µg/mL; in [13] (Hansenula anomala, DSM6766, read-out: MIC) it was above 67 µg/mL.

As to `C=C1[C@@H](C)[C@H]2[C@H](Cc3ccccc3)NC(=O)[C@]23[C@H](OC(C)=O)/C=C/[C@@](C)(O)C(=O)[C@@H](C)C/C=C/[C@H]3[C@@H]1O` [cytochalasin D, reference compound], the “total mortality (TM) by day 2” value in assay [14] is on record as 83%.

Turning to `CNC(C)C1CCC(N)C(OC2C(N)CC(N)C(OC3OCC(C)(O)C(NC)C3O)C2O)O1` (centres unmarked) [gentamicin, reference compound], the MIC in assay [3] (setting [17]) was determined as 0.21 µg/mL (≈ 0.44 µM); in [7] (setting [19]) it was 0.21 µg/mL (≈ 0.44 µM); in assay [9] (setting [23]), 1.7 µg/mL (≈ 3.56 µM); in assay [12] (setting [22]), 0.42 µg/mL (≈ 0.879 µM).

Take `NC[C@H]1O[C@H](O[C@H]2[C@H](O)[C@@H](O[C@H]3O[C@H](CO)[C@@H](O)[C@H](N)[C@H]3O)[C@H](N)C[C@@H]2N)[C@H](O)[C@@H](O)[C@@H]1O` [kanamycin, reference compound]: the MIC in assay [8] is on record as 1.70^K µg/mL.

With `C[C@@H]1[C@H](O)[C@@H](C)/C=C/C=C/CC/C=C/C=C/C=C/C=C/C(O[C@H]2O[C@H](C)[C@@H](O)[C@H](N)[C@@H]2O)CC2O[C@](O)(CC(O)C(O)CCC(O)CC(O)CC(O)CC(=O)O[C@H]1C)CC(O)C2C(=O)O` (some centres unmarked) [nystatin, reference compound], the MIC in [5] is 8.30^N µg/mL; in assay [6], 8.3^N µg/mL; in assay [10], 8.30^N µg/mL; in [11], 4.20^N µg/mL; in assay [13] it was 16.6^N µg/mL.

As to `CN(C)[C@@H]1C(O)=C(C(N)=O)C(=O)[C@@]2(O)C(O)=C3C(=O)c4c(O)cccc4[C@@](C)(O)[C@H]3[C@H](O)[C@@H]12` [oxytetracycline, reference compound], the MIC in assay [2] (setting [16]) turned out to be 16.6 µg/mL (≈ 36.1 µM).

As to beauveriolide L [Compound 6], the IC50 (in assay [1] (setting [24]); in the assay on Mouse fibroblast (L929)) was above 36.5 µM in each case. The MIC result in assay [2], in [3], in [6], in assay [7], in assay [8] and in assay [10] was “n.i. (No inhibition up to 67 µg/mL)” each time. In [12], the MIC result is “n.i. (No inhibition up to 67 µg/mL)”.

As to cyclo-((S)-Pro-(R)-Ile) [Compound 9], the IC50 (in [1] (setting [24]); in the assay on Mouse fibroblast (L929)) was above 36.5 µM each time. The MIC entry in [2], in assay [3], in [4], in assay [5], in assay [6] and in assay [7] was “n.i. (No inhibition up to 67 µg/mL)” in each case. Moreover, the MIC entry in assay [8], in assay [9], in [10], in assay [11], in [12] and in assay [13] was “n.i. (No inhibition up to 67 µg/mL)” in each case.

cyclo-((S)-Pro-(R)-Leu) [Compound 8]: the IC50 (in assay [1] (setting [24]); in the assay with Mouse fibroblast (L929)) was above 36.5 µM each time. Moreover, the MIC result in assay [2], in assay [3], in assay [4], in assay [5], in assay [6] and in assay [7] was “n.i. (No inhibition up to 67 µg/mL)” each time. The MIC result in [8], in assay [9], in assay [10], in assay [11], in assay [12] and in assay [13] was “n.i. (No inhibition up to 67 µg/mL)” each time.

In the case of cyclo-((S)-Val-(R)-Val) [Compound 10], the IC50 (in assay [1] (setting [24]); with Mouse fibroblast (L929)) was above 36.5 µM in each case. The MIC result in [2], in [3], in [6], in [7], in assay [8] and in [10] was “n.i. (No inhibition up to 67 µg/mL)” in each case. Besides, the MIC entry in [12] is reported as “n.i. (No inhibition up to 67 µg/mL)”.
